Results from PubChem BioAssay AID330 (DTP/NCI, 2004).
Toxic doses and inconclusive results are not listed. Square brackets hold non-standard residues; d marks the D form. Peptide text beside a SMILES is read from it. * marks the point of attachment. ξ: configuration not given here. ξF = NC(Cc1ccccc1)C(=O)O; Cbz = O=C(OCc1ccccc1)*

Test system: P388 leukemia ip, CD2F1 mice, survival T/C
Experiment: NCI In Vivo Anticancer Drug Screen. Data for tumor model P388 Leukemia (intraperitoneal) in CD2F1 (CDF1) mice
Details: endpoint: median survival time, higher = longer survival
In short: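 Mice carrying the transplanted tumor received test compound or vehicle. Survival was recorded in each group, and the value is the treated-group measurement divided by that of the vehicle-treated control group.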

[1] = dose: 50.0 mg/kg/injection, schedule: Q01DX009 (ip), vehicle: suspension in saline
[2] = dose: 100.0 mg/kg/injection, schedule: Q01DX009 (ip), vehicle: suspension in saline
[3] = dose: 200.0 mg/kg/injection, schedule: Q01DX009 (ip), vehicle: suspension in saline
[4] = dose: 60.0 mg/kg/injection, schedule: Q01DX005 (ip), vehicle: saline with Tween-80
[5] = dose: 120.0 mg/kg/injection, schedule: Q01DX005 (ip), vehicle: saline with Tween-80
[6] = dose: 50.0 mg/kg/injection, schedule: Q01DX005 (ip), vehicle: Klucel (hydroxypropylcellulose) (HPC)
[7] = dose: 100.0 mg/kg/injection, schedule: Q01DX005 (ip), vehicle: Klucel (hydroxypropylcellulose) (HPC)
[8] = dose: 100.0 mg/kg/injection, schedule: Q01DX001 (ip), vehicle: Klucel (hydroxypropylcellulose) (HPC)
[9] = dose: 200.0 mg/kg/injection, schedule: Q01DX005 (ip), vehicle: Klucel (hydroxypropylcellulose) (HPC)
[10] = dose: 50.0 mg/kg/injection, schedule: Q01DX009 (ip), vehicle: saline with Tween-80
[11] = dose: 100.0 mg/kg/injection, schedule: Q01DX009 (ip), vehicle: saline with Tween-80
[12] = dose: 200.0 mg/kg/injection, schedule: Q01DX009 (ip), vehicle: saline with Tween-80
[13] = dose: 240.0 mg/kg/injection, schedule: Q01DX005 (ip), vehicle: saline with Tween-80

For `CCC1(C)COC(=O)C1=C(C(=O)OC)C(=O)OC` (stereo unspecified), the T/C (dose: 100.0 mg/kg/injection, schedule: Q04DX003 (ip), vehicle: saline) was 112 % of control, the T/C (dose: 200.0 mg/kg/injection, schedule: Q04DX003 (ip), vehicle: saline) was 113 % of control and the T/C (dose: 400.0 mg/kg/injection, schedule: Q04DX003 (ip), vehicle: saline) was 105 % of control.
For `Cc1ccc(N2C(=O)CSC2=S)cc1C`, the T/C [1] was 90 % of control, the T/C [2] was 90 % of control and the T/C [3] was 103 % of control.
`N#Cc1c(-c2ccc(Cl)cc2)cn2c1[nH]c(=O)c1c3c(sc12)CCCC3` was tested, and the T/C [4] was 87 % of control and the T/C [5] was 86 % of control.
In the case of `O=C(O)C(CCCCNC(=S)S)NC(=S)S.[Zn+2]` (stereo unspecified), the T/C [6] is reported as 95 % of control and the T/C [7] is reported as 95 % of control.
For `NC(=S)N/N=C/c1c(-c2ccccc2)nc2n1CCS2`, the T/C [8] was 100 % of control, the T/C (dose: 200.0 mg/kg/injection, schedule: Q01DX001 (ip), vehicle: Klucel (hydroxypropylcellulose) (HPC)) was 104 % of control and the T/C (dose: 400.0 mg/kg/injection, schedule: Q01DX001 (ip), vehicle: Klucel (hydroxypropylcellulose) (HPC)) was 109 % of control.
`O=C(CNC(=O)OCc1ccccc1)NC(Cc1ccccc1)C(=O)O` (stereo not drawn) (Cbz-Gly-[ξF]-OH) was tested, and the T/C [6] was 105 % of control, the T/C [7] was 100 % of control and the T/C [9] was 104 % of control.
`CC(=O)C1=C([Si](C)(C)C)N=NC1(C)C` was tested, and the T/C (dose: 50.0 mg/kg/injection, schedule: Q01DX005 (ip), vehicle: saline with Tween-80) was 111 % of control, the T/C (dose: 100.0 mg/kg/injection, schedule: Q01DX005 (ip), vehicle: saline with Tween-80) was 109 % of control and the T/C (dose: 200.0 mg/kg/injection, schedule: Q01DX005 (ip), vehicle: saline with Tween-80) was 102 % of control.
In the case of `O=c1oc(NC2CCCCC2)nc2ccccc12`, the T/C (dose: 60.0 mg/kg/injection, schedule: Q01DX005 (ip), vehicle: Klucel (hydroxypropylcellulose) (HPC)) is reported as 93 % of control, the T/C (dose: 120.0 mg/kg/injection, schedule: Q01DX005 (ip), vehicle: Klucel (hydroxypropylcellulose) (HPC)) is reported as 92 % of control and the T/C (dose: 240.0 mg/kg/injection, schedule: Q01DX005 (ip), vehicle: Klucel (hydroxypropylcellulose) (HPC)) is reported as 92 % of control.
For `O=C(O)c1cc2c(c(C(=O)O)c1O)CCCC2`, the T/C (dose: 6.25 mg/kg/injection, schedule: Q01DX005 (ip), vehicle: saline) was 94 % of control, the T/C (dose: 12.5 mg/kg/injection, schedule: Q01DX005 (ip), vehicle: saline) was 92 % of control and the T/C (dose: 25.0 mg/kg/injection, schedule: Q01DX005 (ip), vehicle: saline) was 94 % of control.
With `O=C(C=C(C(F)(F)F)C(F)(F)F)c1ccc(Cl)c2ccccc12` the T/C (dose: 12.5 mg/kg/injection, schedule: Q04DX003 (ip), vehicle: saline with Tween-80) was 113 % of control and the T/C (dose: 25.0 mg/kg/injection, schedule: Q04DX003 (ip), vehicle: saline with Tween-80) was 118 % of control.
With `COc1ccc(-n2nnnc2N(C)c2ccccc2)cc1` the T/C (dose: 50.0 mg/kg/injection, schedule: Q04DX003 (ip), vehicle: saline with Tween-80) was 100 % of control, the T/C (dose: 100.0 mg/kg/injection, schedule: Q04DX003 (ip), vehicle: saline with Tween-80) was 94 % of control and the T/C (dose: 200.0 mg/kg/injection, schedule: Q04DX003 (ip), vehicle: saline with Tween-80) was 96 % of control.
`Cc1cc(N/N=C/c2c(C)n(C)n(-c3ccccc3)c2=O)c2cc3c(cc2n1)OCO3` was tested, and the T/C (dose: 6.25 mg/kg/injection, schedule: Q01DX005 (ip), vehicle: Klucel (hydroxypropylcellulose) (HPC)) was 103 % of control, the T/C (dose: 12.5 mg/kg/injection, schedule: Q01DX005 (ip), vehicle: Klucel (hydroxypropylcellulose) (HPC)) was 113 % of control and the T/C (dose: 25.0 mg/kg/injection, schedule: Q01DX005 (ip), vehicle: Klucel (hydroxypropylcellulose) (HPC)) was 108 % of control.
For `COc1ccc(CCNc2cc3ncn(C)c(=O)c3cc2[N+](=O)[O-])cc1OC`, the T/C (dose: 100.0 mg/kg/injection, schedule: Q04DX003 (ip), vehicle: Klucel (hydroxypropylcellulose) (HPC)) was 101 % of control, the T/C (dose: 200.0 mg/kg/injection, schedule: Q04DX003 (ip), vehicle: Klucel (hydroxypropylcellulose) (HPC)) was 100 % of control and the T/C (dose: 400.0 mg/kg/injection, schedule: Q04DX003 (ip), vehicle: Klucel (hydroxypropylcellulose) (HPC)) was 86 % of control.
For `S=c1nc[nH][nH]1`, the T/C [1] was 99 % of control, the T/C [2] was 105 % of control and the T/C [3] was 106 % of control.
In the case of `O=C1C(Cl)=C(Sc2nnc3c4ccccc4c4ccccc4c3n2)C(=O)c2ccccc21`, the T/C [10] is reported as 100 % of control, the T/C [11] is reported as 91 % of control and the T/C [12] is reported as 99 % of control.
In the case of `O=Cc1ncccc1[N+](=O)[O-]`, the T/C (dose: 50.0 mg/kg/injection, schedule: Q01DX009 (ip), vehicle: saline + Tween-80 + alcohol) is reported as 116 % of control and the T/C (dose: 100.0 mg/kg/injection, schedule: Q01DX009 (ip), vehicle: saline + Tween-80 + alcohol) is reported as 115 % of control.
For `O=[N+]([O-])c1cccc(N/N=C\c2cccc3c(/C=N/Nc4cccc([N+](=O)[O-])c4)c(Cl)n(-c4ccccc4)c23)c1`, the T/C [8] was 86 % of control.
In the case of `O=C(CC1=NC2NN(c3ccccc3)C(=O)C2=C1CC(=O)c1cccc([N+](=O)[O-])c1)c1cccc([N+](=O)[O-])c1` (stereo unspecified), the T/C [4] is reported as 95 % of control, the T/C [5] is reported as 99 % of control and the T/C [13] is reported as 86 % of control.
For `NC(=O)c1cc2c(oc1=O)-c1ccccc1OC2`, the T/C [4] was 98 % of control, the T/C [5] was 95 % of control and the T/C [13] was 95 % of control.
`O=C1c2c(O)ccc(O)c2C(=O)c2c(NCCN(CCO)Cc3ccccc3)ccc(NCCN(CCO)Cc3ccccc3)c21` was tested, and the T/C (dose: 0.62 mg/kg/injection, schedule: Q01DX009 (ip), vehicle: saline with Tween-80) was 118 % of control, the T/C (dose: 1.25 mg/kg/injection, schedule: Q01DX009 (ip), vehicle: saline with Tween-80) was 106 % of control and the T/C (dose: 2.5 mg/kg/injection, schedule: Q01DX009 (ip), vehicle: saline with Tween-80) was 97 % of control. The T/C (dose: 5.0 mg/kg/injection, schedule: Q01DX009 (ip), vehicle: saline with Tween-80) was 109 % of control, the T/C (dose: 10.0 mg/kg/injection, schedule: Q01DX009 (ip), vehicle: saline with Tween-80) was 86 % of control and the T/C (dose: 20.0 mg/kg/injection, schedule: Q01DX009 (ip), vehicle: saline with Tween-80) was 103 % of control. The T/C (dose: 40.0 mg/kg/injection, schedule: Q01DX009 (ip), vehicle: distilled water + Tween-80) was 101 % of control, the T/C (dose: 40.0 mg/kg/injection, schedule: Q01DX009 (ip), vehicle: saline with Tween-80) was 103 % of control and the T/C (dose: 80.0 mg/kg/injection, schedule: Q01DX009 (ip), vehicle: distilled water + Tween-80) was 123 % of control. For the same molecule, the T/C (dose: 80.0 mg/kg/injection, schedule: Q01DX009 (ip), vehicle: saline with Tween-80) was 106 % of control, the T/C (dose: 160.0 mg/kg/injection, schedule: Q01DX009 (ip), vehicle: distilled water + Tween-80) was 166 % of control and the T/C (dose: 160.0 mg/kg/injection, schedule: Q01DX009 (ip), vehicle: saline with Tween-80) was 163 % of control. The T/C (dose: 320.0 mg/kg/injection, schedule: Q01DX009 (ip), vehicle: distilled water + Tween-80) was 194 % of control.
In the case of `Cc1c(Cl)cc[n+]([O-])c1C`, the T/C (dose: 25.0 mg/kg/injection, schedule: Q01DX009 (ip), vehicle: other) is reported as 100 % of control, the T/C (dose: 50.0 mg/kg/injection, schedule: Q01DX009 (ip), vehicle: other) is reported as 108 % of control and the T/C (dose: 100.0 mg/kg/injection, schedule: Q01DX009 (ip), vehicle: other) is reported as 108 % of control. The T/C (dose: 200.0 mg/kg/injection, schedule: Q01DX009 (ip), vehicle: other) was 107 % of control and the T/C (dose: 400.0 mg/kg/injection, schedule: Q01DX009 (ip), vehicle: other) was 110 % of control.
`CNC(=O)Cc1ccc2cc(OC)c(OC)cc2c1` was tested, and the T/C [10] was 90 % of control, the T/C [11] was 95 % of control and the T/C [12] was 90 % of control.
For `NC(=S)NC12CC3CC(CC(C3)C1)C2`, the T/C (dose: 50.0 mg/kg/injection, schedule: Q04DX002 (ip), vehicle: saline with Tween-80) was 99 % of control, the T/C (dose: 100.0 mg/kg/injection, schedule: Q04DX002 (ip), vehicle: saline with Tween-80) was 98 % of control and the T/C (dose: 200.0 mg/kg/injection, schedule: Q04DX002 (ip), vehicle: saline with Tween-80) was 98 % of control.
`COc1cc(C(=O)N2C3C4CCC(C)(OC4(C)C)C32)cc(OC)c1OC` (stereo unspecified) was tested, and the T/C [6] was 95 % of control, the T/C [7] was 97 % of control and the T/C [9] was 94 % of control.
With `CCCCOB(CI)OCCCC` the T/C (dose: 6.25 mg/kg/injection, schedule: Q04DX003 (ip), vehicle: saline) was 110 % of control, the T/C (dose: 12.5 mg/kg/injection, schedule: Q04DX003 (ip), vehicle: saline) was 100 % of control and the T/C (dose: 25.0 mg/kg/injection, schedule: Q04DX003 (ip), vehicle: saline) was 110 % of control.
